{"source": "patent US20030032003A1", "about": "“IN VIVO SELECTION” (priority 2000, published 2003)", "key": {"Neo −/− mice": {"test_system": "Neo −/− mice", "test": "Acute toxicity of G418", "format": "in vivo, mouse", "details": "10 days", "method": "(§1) As in Example 1, applicants characterized the tissue specific expression of neoR mRNA and furthermore, investigated acute tissue specific toxicities of G418 in neo^R+/+ mice. The neoR mRNA reached highest levels in testis, intermediate in brain, kidney and liver. Low levels were detected in heart skeletal muscle and lungs and almost undetectable low levels in spleen. For acute toxicity determination the animals were treated with a single dose i.p. at concentrations starting at 47 mg/kg and increased thereafter by approximately 50% for each consecutive dose. The neoR expression in transgenic animals caused 10-fold increase of the approximate lethal dose of G418 (Table 4)."}, "neo +/+ transgenic mice": {"test_system": "neo +/+ transgenic mice", "test": "Acute toxicity of G418", "format": "in vivo, mouse", "details": "for survival / body weight, percentage of the body weight before the experiment: Neo +/+, 10 days", "method": "as §1"}, "neo^R mice": {"test_system": "neo^R mice", "test": "Biochemical analysis of mouse serum after G418", "format": "in vivo", "details": "335 mg/kg single i.p., serum 48 hrs after treatment", "method": "(§2) BUN and CRE levels are diagnostic markers of kidney damage. […] In these transgenic animals G418 at the highest dose (1140 mg/kg) caused immediate toxicity resulting in death due to breath failure within 10 minutes after injection."}, "wildtype mice": {"test_system": "wildtype mice", "test": "Biochemical analysis of mouse serum after G418", "format": "in vivo", "details": "335 mg/kg single i.p., serum 48 hrs after treatment", "method": "as §2"}}}
{"smiles": "CN[C@@H]1[C@@H](O)[C@@H](O[C@@H]2[C@@H](O)[C@H](O[C@H]3O[C@H]([C@@H](C)O)[C@@H](O)[C@H](O)[C@H]3N)[C@@H](N)C[C@H]2N)OC[C@]1(C)O", "note": "[G418]", "values": [{"measurement": "body weight, percentage of the body weight before the experiment", "setting": "Neo −/− mice; 47 mg/kg single i.p.", "result": "101 ± 1", "unit": "%"}, {"measurement": "survival", "setting": "Neo −/− mice; 47 mg/kg single i.p.", "result": "surv (surv, animals survived the 10 day period)"}, {"measurement": "body weight, percentage of the body weight before the experiment", "setting": "Neo −/− mice; 68 mg/kg single i.p.", "result": "104 ± 4", "unit": "%"}, {"measurement": "survival", "setting": "Neo −/− mice; 68 mg/kg single i.p.", "result": "surv (surv, animals survived the 10 day period)"}, {"measurement": "body weight, percentage of the body weight before the experiment", "setting": "Neo −/− mice; 103 mg/kg single i.p.", "result": "73 ± 6", "unit": "%"}, {"measurement": "survival", "setting": "Neo −/− mice; 103 mg/kg single i.p.", "result": 8, "unit": "days"}, {"measurement": "body weight, percentage of the body weight before the experiment", "setting": "Neo −/− mice; 153 mg/kg single i.p.", "result": "73 ± 5", "unit": "%"}, {"measurement": "survival", "setting": "Neo −/− mice; 153 mg/kg single i.p.", "result": 8, "unit": "days"}, {"measurement": "body weight, percentage of the body weight before the experiment", "setting": "Neo −/− mice; 230 mg/kg single i.p.", "result": "85 ± 2", "unit": "%"}, {"measurement": "survival", "setting": "Neo −/− mice; 230 mg/kg single i.p.", "result": 4, "unit": "days"}, {"measurement": "body weight, percentage of the body weight before the experiment", "setting": "Neo −/− mice; 345 mg/kg single i.p.", "result": "97 ± 1", "unit": "%"}, {"measurement": "survival", "setting": "Neo −/− mice; 345 mg/kg single i.p.", "result": 1, "unit": "days"}, {"measurement": "body weight, percentage of the body weight before the experiment", "setting": "Neo −/− mice; 480 mg/kg single i.p.", "result": "99 ± 1", "unit": "%"}, {"measurement": "survival", "setting": "Neo −/− mice; 480 mg/kg single i.p.", "result": 1, "unit": "days"}, {"measurement": "body weight, percentage of the body weight before the experiment", "setting": "Neo −/− mice; 778 mg/kg single i.p.", "result": "100 ± 2", "unit": "%"}, {"measurement": "survival", "setting": "Neo −/− mice; 778 mg/kg single i.p.", "result": 1, "unit": "days"}, {"measurement": "survival", "setting": "neo +/+ transgenic mice; 47 mg/kg single i.p.", "result": "surv (surv, animals survived the 10 day period)"}, {"measurement": "body weight, percentage of the body weight before the experiment", "setting": "neo +/+ transgenic mice; 68 mg/kg single i.p.", "result": "100 ± 1", "unit": "%"}, {"measurement": "survival", "setting": "neo +/+ transgenic mice; 68 mg/kg single i.p.", "result": "surv (surv, animals survived the 10 day period)"}, {"measurement": "survival", "setting": "neo +/+ transgenic mice; 103 mg/kg single i.p.", "result": "surv (surv, animals survived the 10 day period)"}, {"measurement": "body weight, percentage of the body weight before the experiment", "setting": "neo +/+ transgenic mice; 153 mg/kg single i.p.", "result": "102 ± 3", "unit": "%"}, {"measurement": "survival", "setting": "neo +/+ transgenic mice; 153 mg/kg single i.p.", "result": "surv (surv, animals survived the 10 day period)"}, {"measurement": "body weight, percentage of the body weight before the experiment", "setting": "neo +/+ transgenic mice; 230 mg/kg single i.p.", "result": "100 ± 2", "unit": "%"}, {"measurement": "survival", "setting": "neo +/+ transgenic mice; 230 mg/kg single i.p.", "result": "surv (surv, animals survived the 10 day period)"}, {"measurement": "body weight, percentage of the body weight before the experiment", "setting": "neo +/+ transgenic mice; 345 mg/kg single i.p.", "result": "98 ± 4", "unit": "%"}, {"measurement": "survival", "setting": "neo +/+ transgenic mice; 345 mg/kg single i.p.", "result": "surv (surv, animals survived the 10 day period)"}, {"measurement": "body weight, percentage of the body weight before the experiment", "setting": "neo +/+ transgenic mice; 480 mg/kg single i.p.", "result": "100 ± 1", "unit": "%"}, {"measurement": "survival", "setting": "neo +/+ transgenic mice; 480 mg/kg single i.p.", "result": "surv (surv, animals survived the 10 day period)"}, {"measurement": "body weight, percentage of the body weight before the experiment", "setting": "neo +/+ transgenic mice; 778 mg/kg single i.p.", "result": "101 ± 1", "unit": "%"}, {"measurement": "survival", "setting": "neo +/+ transgenic mice; 778 mg/kg single i.p.", "result": "surv (surv, animals survived the 10 day period)"}, {"measurement": "body weight, percentage of the body weight before the experiment", "setting": "neo +/+ transgenic mice; 1140 mg/kg single i.p.", "result": "100 ± 1", "unit": "%"}, {"measurement": "survival", "setting": "neo +/+ transgenic mice; 1140 mg/kg single i.p.", "result": 1, "unit": "days"}, {"measurement": "increase of the approximate lethal dose", "setting": "neo +/+ transgenic mice; neoR expression in transgenic animals vs wild type", "result": 10, "unit": "fold"}, {"measurement": "time to death due to breath failure after injection", "setting": "neo +/+ transgenic mice; neo^R transgenic animals, highest dose 1140 mg/kg", "result": "≤ 10", "unit": "min"}, {"measurement": "ALT", "setting": "neo^R mice", "result": "54.3 ± 14.4", "unit": "u/l"}, {"measurement": "BUN", "setting": "neo^R mice", "result": "22.3 ± 0.9", "unit": "mg/dL"}, {"measurement": "CRE", "setting": "neo^R mice", "result": "0.23 ± 0.05", "unit": "mg/dL"}, {"measurement": "ALT", "setting": "wildtype mice", "result": "102.0 ± 9.4", "unit": "u/l"}, {"measurement": "BUN", "setting": "wildtype mice", "result": "96.0 ± 14.2", "unit": "mg/dL"}, {"measurement": "CRE", "setting": "wildtype mice", "result": "0.67 ± 0.05", "unit": "mg/dL"}]}
